# How the values were obtained:
# [1] = Measurement of triplet energy level; assay type: physicochemical; settings: spin-coated film of about 50 nm from 3 weight % toluene solution; PL spectrum at 77 K, peak of shortest wavelength
# Description: Compound 1 was dissolved in toluene to a concentration of 3 weight % to prepare a solution. The same applied to Compounds 3 and C1 to prepare solutions. The solutions were spin-coated at a rotational speed of 1,600 revolutions per minute (rpm) and dried on a hot plate at a temperature of 120° C. for 15 minutes to obtain films (samples) having a thickness (film thickness after dry) of about 50 nanometers (nm). The samples were cooled to a temperature of 77 Kelvins (K) (−196° C.) and photoluminescence (PL) spectrums were obtained. The triplet energy levels (electron volts, eV) were calculated at the peak values of the shortest wavelengths of the PL spectrums.
# [2] = Measurement of solubility; assay type: physicochemical; settings: methyl benzoate (solvent), room temperature, ultrasonic waves
# Description: 50 milligrams (mg) of Compound 1 and 500 mg of methyl benzoate (solvent) were added to a colorless sample bottle, ultrasonic waves were irradiated thereon at room temperature for 5 minutes, and the presence or absence of Compound 1 was visually confirmed. […] When Compound 1 remains, a small amount of a solvent was added thereto, the irradiation of ultrasonic waves was repeated, and an amount of the solvent was measured until Compound 1 was completely dissolved. The solubility was measured from the amount of the solvent finally used. The solubility values of Compounds 3 and C1 were calculated in the same manner.
Compound,Triplet energy level [1] [eV],Solubility [2] [weight %]
c1ccc(-c2cccc(-c3cccc(-c4cccc5c4-c4ccccc4C54c5ccccc5-c5c(-c6cccc(-c7cccc(-c8ccccc8)c7)c6)cccc54)c3)c2)cc1 [Compound 1],2.96,7
c1ccc(-c2cc(-c3ccccc3)cc(-c3cccc(-c4cccc5c4-c4ccccc4C54c5ccccc5-c5c(-c6cccc(-c7cc(-c8ccccc8)cc(-c8ccccc8)c7)c6)cccc54)c3)c2)cc1 [Compound 3],2.96,9
c1ccc(-c2nc(-c3ccccc3)nc(-c3cccc(-c4cccc(-c5cccc6c5-c5ccccc5C65c6ccccc6-c6c(-c7ccccc7)cccc65)c4)c3)n2)cc1 (centres unmarked) [Compound C2],2.91,<1
c1ccc(-c2cccc(-c3cccc(-c4ccc5c(c4)C4(c6ccccc6-5)c5ccccc5-c5ccc(-c6cccc(-c7cccc(-c8ccccc8)c7)c6)cc54)c3)c2)cc1 [Compound C1],2.81,2

# Reference: patent publication US11233200B2, “Condensed cyclic compound, composition including the same, and organic light-emitting device including the condensed cyclic compound” (Samsung Electronics Co., Ltd., priority 2018, dated 2022)
